Literature values as cited in patent US9554998B1, “Composition of analgesic bioadhesive healing microspheres” (priority 2015, dated 2017).

Key:
[1] = single patient
[2] = applied for 30 minutes to the forearms of healthy volunteers

Compound: FCOC(C(F)(F)F)C(F)(F)F [sevoflurane, fluoromethyl 2.2.2-trifluoro-1-(trifluoromethyl)ethyl ether]
- analgesic control ([1]; liquid sevoflurane directly on to the ulcer bed): immediate, intense and long-lasting analgesia
- time the ulcer took to heal ([1]; liquid sevoflurane on the ulcer bed): 16 days
- local analgesic effect [2]: slight local analgesic effect

Compound: FC(F)OC(Cl)C(F)(F)F (centres unmarked) [isoflurane]
- local analgesic effect [2]: slight local analgesic effect

Compound: FC(F)(F)C(Cl)Br (centres unmarked) [halothane]
- local analgesic effect [2]: slight local analgesic effect
